Measured values: publication PMC4917279 (Journal of Medicinal Chemistry, 2016)
“Also recorded” adds a separate entry of the source.

Tests used:
[1] = target: T1, ABL1(M351T)-phosphorylated (Homo sapiens, UniProt P00519, M351T); assay: KINOMEscan; type: binding; conditions: read-out: %Ctrl @ 1000 nM
T1 construct: purchased DiscoveRx (KINOMEscan service)

[2] = target: T2, ACVR1 (Homo sapiens, UniProt Q04771); assay: KINOMEscan; type: binding; conditions: read-out: %Ctrl @ 1000 nM
T2 construct: purchased DiscoveRx

[3] = target: T3, ALK (Homo sapiens, UniProt Q9UM73); assay: KINOMEscan; type: binding; conditions: read-out: %Ctrl @ 1000 nM
T3 construct: purchased DiscoveRx KINOMEscan

[4] = target: T4, AURKB (Homo sapiens, UniProt Q96GD4); assay: KINOMEscan; type: binding; conditions: read-out: %Ctrl @ 1000 nM
T4 construct: purchased DiscoveRx KINOMEscan

[5] = target: T5, BRSK1 (Homo sapiens, UniProt Q8TDC3); assay: KINOMEscan; type: binding; conditions: read-out: %Ctrl @ 1000 nM
T5 construct: purchased DiscoveRx KINOMEscan

[6] = target: T6, CDK4-cyclinD1 (Homo sapiens, UniProt P11802); assay: KINOMEscan; type: binding; conditions: read-out: %Ctrl @ 1000 nM
T6 construct: purchased DiscoveRx KINOMEscan

[7] = target: T7, CDK4-cyclinD3 (Homo sapiens, UniProt P11802); assay: KINOMEscan; type: binding; conditions: read-out: %Ctrl @ 1000 nM
T7 construct: purchased DiscoveRx KINOMEscan

[8] = target: T8, CDK9 (Homo sapiens, UniProt P50750); assay: KINOMEscan; type: binding; conditions: read-out: %Ctrl @ 1000 nM
T8 construct: purchased DiscoveRx KINOMEscan

[9] = target: T9, EGFR(L858R) (Homo sapiens, UniProt P00533, L858R); assay: KINOMEscan; type: binding; conditions: read-out: %Ctrl @ 1000 nM
T9 construct: purchased DiscoveRx KINOMEscan

[10] = target: T10, EIF2AK1 (Homo sapiens, UniProt Q9BQI3); assay: KINOMEscan; type: binding; conditions: read-out: %Ctrl @ 1000 nM
T10 construct: purchased DiscoveRx KINOMEscan

[11] = target: T11, EPHA1 (Homo sapiens, UniProt P21709); assay: KINOMEscan; type: binding; conditions: read-out: %Ctrl @ 1000 nM
T11 construct: purchased DiscoveRx KINOMEscan

[12] = target: T12, EPHB1 (Homo sapiens, UniProt P54762); assay: KINOMEscan; type: binding; conditions: read-out: %Ctrl @ 1000 nM
T12 construct: purchased DiscoveRx KINOMEscan

[13] = target: T13, EPHB4 (Homo sapiens, UniProt P54760); assay: KINOMEscan; type: binding; conditions: read-out: %Ctrl @ 1000 nM
T13 construct: purchased DiscoveRx KINOMEscan

[14] = target: T14, IGF1R (Homo sapiens, UniProt P08069); assay: KINOMEscan; type: binding; conditions: read-out: %Ctrl @ 1000 nM
T14 construct: purchased DiscoveRx KINOMEscan

[15] = target: T15, LATS2 (Homo sapiens, UniProt Q9NRM7); assay: KINOMEscan; type: binding; conditions: read-out: %Ctrl @ 1000 nM
T15 construct: purchased DiscoveRx KINOMEscan

[16] = target: T16, LYN (Homo sapiens, UniProt P07948); assay: KINOMEscan; type: binding; conditions: read-out: %Ctrl @ 1000 nM
T16 construct: purchased DiscoveRx KINOMEscan

[17] = target: T17, MAP3K1 (Homo sapiens, UniProt Q13233); assay: KINOMEscan; type: binding; conditions: read-out: %Ctrl @ 1000 nM
T17 construct: purchased DiscoveRx KINOMEscan

[18] = target: T18, MAP3K4 (Homo sapiens, UniProt Q9Y6R4); assay: KINOMEscan; type: binding; conditions: read-out: %Ctrl @ 1000 nM
T18 construct: purchased DiscoveRx KINOMEscan

[19] = target: T19, MEK2 (Homo sapiens, UniProt P36507); assay: KINOMEscan; type: binding; conditions: read-out: %Ctrl @ 1000 nM
T19 construct: purchased DiscoveRx KINOMEscan

[20] = target: T20, MKNK2 (Homo sapiens, UniProt Q9HBH9); assay: KINOMEscan; type: binding; conditions: read-out: %Ctrl @ 1000 nM
T20 construct: purchased DiscoveRx KINOMEscan

[21] = target: T21, MYLK2 (Homo sapiens, UniProt Q9H1R3); assay: KINOMEscan; type: binding; conditions: read-out: %Ctrl @ 1000 nM
T21 construct: purchased DiscoveRx KINOMEscan

[22] = target: T22, PAK3 (Homo sapiens, UniProt O75914); assay: KINOMEscan; type: binding; conditions: read-out: %Ctrl @ 1000 nM
T22 construct: purchased DiscoveRx KINOMEscan

[23] = target: T23, PAK4 (Homo sapiens, UniProt O96013); assay: KINOMEscan; type: binding; conditions: read-out: %Ctrl @ 1000 nM
T23 construct: purchased DiscoveRx KINOMEscan

[24] = target: T24, PFTAIRE2 (Homo sapiens, UniProt Q96Q40); assay: KINOMEscan; type: binding; conditions: read-out: %Ctrl @ 1000 nM
T24 construct: purchased DiscoveRx KINOMEscan

[25] = target: T25, PFTK1 (Homo sapiens, UniProt O94921); assay: KINOMEscan; type: binding; conditions: read-out: %Ctrl @ 1000 nM
T25 construct: purchased DiscoveRx KINOMEscan

[26] = target: T26, PKNB(M.tuberculosis) (Mycobacterium tuberculosis, UniProt P9WI81); assay: biochemical; type: binding; conditions: read-out: %Ctrl @ 1000 nM
T26 construct: purchased DiscoveRx KINOMEscan

[27] = target: T27, PLK1 (Homo sapiens, UniProt P53350); assay: KINOMEscan; type: binding; conditions: read-out: %Ctrl @ 1000 nM
T27 construct: purchased DiscoveRx KINOMEscan

[28] = target: T28, RIOK1 (Homo sapiens, UniProt Q9BRS2); assay: KINOMEscan; type: binding; conditions: read-out: %Ctrl @ 1000 nM
T28 construct: purchased DiscoveRx KINOMEscan

[29] = target: T29, RIOK2 (Homo sapiens, UniProt Q9BVS4); assay: KINOMEscan; type: binding; conditions: read-out: %Ctrl @ 1000 nM
T29 construct: purchased DiscoveRx KINOMEscan

[30] = target: RPS6KA5(Kin.Dom.2-C-terminal) (Homo sapiens, UniProt O75582); assay: KINOMEscan; type: binding; conditions: read-out: %Ctrl @ 1000 nM
[31] = target: T30, RSK2(Kin.Dom.2-C-terminal) (Homo sapiens, UniProt P51812); assay: KINOMEscan; type: binding; conditions: read-out: %Ctrl @ 1000 nM
T30 construct: RSK2(Kin.Dom.2-C-terminal); purchased DiscoveRx KINOMEscan

[32] = target: T31, TYRO3 (Homo sapiens, UniProt Q06418); assay: KINOMEscan; type: binding; conditions: read-out: %Ctrl @ 1000 nM
T31 construct: purchased DiscoveRx KINOMEscan

[33] = target: T32, YANK2 (Homo sapiens, UniProt Q9NY57); assay: KINOMEscan; type: binding; conditions: read-out: %Ctrl @ 1000 nM
T32 construct: purchased DiscoveRx KINOMEscan

[34] = target: T33, ZAK (Homo sapiens, UniProt Q9NYL2); assay: KINOMEscan; type: binding; conditions: read-out: %Ctrl @ 1000 nM
T33 construct: purchased DiscoveRx

[35] = target: SMYD2 (Homo sapiens, UniProt Q9NRG4); assay: Mechanism-of-inhibition studies (SPA, Cheng-Prusoff); type: biochemical; parameters: The SMYD2 full-length enzyme with an N-terminal 6xHis tag was expressed in Escherichia coli; made in house; host or cells: Escherichia coli
SMYD2, sequence (Q9NRG4 whole entry): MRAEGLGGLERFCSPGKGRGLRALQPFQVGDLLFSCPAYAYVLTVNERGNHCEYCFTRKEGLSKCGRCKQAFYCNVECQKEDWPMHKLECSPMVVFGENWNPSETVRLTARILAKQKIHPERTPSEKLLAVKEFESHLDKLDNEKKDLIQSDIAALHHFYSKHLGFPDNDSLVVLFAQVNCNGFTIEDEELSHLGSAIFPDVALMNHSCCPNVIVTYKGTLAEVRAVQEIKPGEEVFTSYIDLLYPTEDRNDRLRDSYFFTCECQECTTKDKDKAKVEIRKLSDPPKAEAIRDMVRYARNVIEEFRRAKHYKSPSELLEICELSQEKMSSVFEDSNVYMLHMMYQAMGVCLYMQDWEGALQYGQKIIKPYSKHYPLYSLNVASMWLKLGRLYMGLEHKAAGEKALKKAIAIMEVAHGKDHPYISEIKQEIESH

T3 sequence (Q9UM73 19-1620): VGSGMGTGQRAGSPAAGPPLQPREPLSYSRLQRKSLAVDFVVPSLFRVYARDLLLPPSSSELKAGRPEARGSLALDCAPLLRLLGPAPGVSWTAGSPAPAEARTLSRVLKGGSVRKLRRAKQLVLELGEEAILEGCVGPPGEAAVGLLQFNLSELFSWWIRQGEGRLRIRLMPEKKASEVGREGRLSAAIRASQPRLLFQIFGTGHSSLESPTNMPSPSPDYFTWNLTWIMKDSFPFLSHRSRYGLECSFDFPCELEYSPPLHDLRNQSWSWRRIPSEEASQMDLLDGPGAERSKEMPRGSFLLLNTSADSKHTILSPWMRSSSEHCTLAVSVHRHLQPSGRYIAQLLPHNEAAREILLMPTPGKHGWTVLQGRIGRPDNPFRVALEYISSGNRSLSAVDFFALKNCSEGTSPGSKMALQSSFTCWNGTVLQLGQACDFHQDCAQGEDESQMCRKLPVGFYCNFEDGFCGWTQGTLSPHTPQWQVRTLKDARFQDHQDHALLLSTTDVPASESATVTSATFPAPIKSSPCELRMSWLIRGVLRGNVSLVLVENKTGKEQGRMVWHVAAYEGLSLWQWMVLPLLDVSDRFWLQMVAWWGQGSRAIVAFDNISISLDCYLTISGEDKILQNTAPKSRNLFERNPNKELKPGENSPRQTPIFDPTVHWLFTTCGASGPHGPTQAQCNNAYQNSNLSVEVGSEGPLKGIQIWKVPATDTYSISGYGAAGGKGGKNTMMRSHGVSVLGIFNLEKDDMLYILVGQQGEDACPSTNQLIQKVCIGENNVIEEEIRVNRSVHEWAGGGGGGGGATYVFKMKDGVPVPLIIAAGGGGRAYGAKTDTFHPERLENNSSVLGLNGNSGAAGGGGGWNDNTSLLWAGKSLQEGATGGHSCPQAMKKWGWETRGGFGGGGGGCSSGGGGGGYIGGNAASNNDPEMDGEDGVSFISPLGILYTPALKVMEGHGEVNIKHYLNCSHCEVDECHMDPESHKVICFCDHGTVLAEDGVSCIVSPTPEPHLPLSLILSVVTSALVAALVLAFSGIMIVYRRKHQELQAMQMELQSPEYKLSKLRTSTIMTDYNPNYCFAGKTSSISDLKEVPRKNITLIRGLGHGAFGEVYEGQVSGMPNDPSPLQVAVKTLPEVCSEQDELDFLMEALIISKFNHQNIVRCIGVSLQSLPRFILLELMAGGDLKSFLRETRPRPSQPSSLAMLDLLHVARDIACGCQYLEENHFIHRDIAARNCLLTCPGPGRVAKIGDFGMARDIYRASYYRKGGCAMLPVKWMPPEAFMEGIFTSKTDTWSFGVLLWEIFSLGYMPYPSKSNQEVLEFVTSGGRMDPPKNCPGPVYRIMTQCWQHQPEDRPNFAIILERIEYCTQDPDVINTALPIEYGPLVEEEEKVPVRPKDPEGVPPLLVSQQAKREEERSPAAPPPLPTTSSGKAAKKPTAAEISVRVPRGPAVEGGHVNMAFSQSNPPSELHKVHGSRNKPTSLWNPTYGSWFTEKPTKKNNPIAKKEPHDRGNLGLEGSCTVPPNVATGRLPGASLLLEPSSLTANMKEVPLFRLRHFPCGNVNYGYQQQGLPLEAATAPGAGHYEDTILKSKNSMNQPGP
T29 sequence (Q9BVS4 whole entry): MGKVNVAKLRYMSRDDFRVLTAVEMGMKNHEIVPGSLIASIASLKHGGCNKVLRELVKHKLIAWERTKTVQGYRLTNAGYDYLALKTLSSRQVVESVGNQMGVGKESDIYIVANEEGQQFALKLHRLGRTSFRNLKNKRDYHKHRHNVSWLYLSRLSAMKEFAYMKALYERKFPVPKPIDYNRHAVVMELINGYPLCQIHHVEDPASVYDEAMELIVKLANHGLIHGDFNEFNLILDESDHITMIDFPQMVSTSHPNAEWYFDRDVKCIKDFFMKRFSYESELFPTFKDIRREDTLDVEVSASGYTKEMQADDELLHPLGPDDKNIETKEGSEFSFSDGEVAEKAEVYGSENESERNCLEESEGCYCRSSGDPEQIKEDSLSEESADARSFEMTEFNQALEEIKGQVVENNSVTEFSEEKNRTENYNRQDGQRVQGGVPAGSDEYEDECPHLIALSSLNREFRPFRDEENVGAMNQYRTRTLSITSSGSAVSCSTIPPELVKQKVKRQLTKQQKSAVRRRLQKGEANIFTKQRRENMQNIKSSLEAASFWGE
T19 sequence (P36507 whole entry): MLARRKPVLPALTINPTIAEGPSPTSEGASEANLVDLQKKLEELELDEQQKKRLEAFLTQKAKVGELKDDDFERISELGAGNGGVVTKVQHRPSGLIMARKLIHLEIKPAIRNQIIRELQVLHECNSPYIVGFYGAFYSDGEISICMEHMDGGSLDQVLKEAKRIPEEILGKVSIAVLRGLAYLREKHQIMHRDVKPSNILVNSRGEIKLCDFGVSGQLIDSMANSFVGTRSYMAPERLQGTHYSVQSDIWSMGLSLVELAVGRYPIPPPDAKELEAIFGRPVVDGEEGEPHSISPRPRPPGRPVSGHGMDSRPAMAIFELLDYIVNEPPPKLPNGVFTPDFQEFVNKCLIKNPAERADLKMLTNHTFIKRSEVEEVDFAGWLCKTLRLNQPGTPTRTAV
T27 sequence (P53350 whole entry): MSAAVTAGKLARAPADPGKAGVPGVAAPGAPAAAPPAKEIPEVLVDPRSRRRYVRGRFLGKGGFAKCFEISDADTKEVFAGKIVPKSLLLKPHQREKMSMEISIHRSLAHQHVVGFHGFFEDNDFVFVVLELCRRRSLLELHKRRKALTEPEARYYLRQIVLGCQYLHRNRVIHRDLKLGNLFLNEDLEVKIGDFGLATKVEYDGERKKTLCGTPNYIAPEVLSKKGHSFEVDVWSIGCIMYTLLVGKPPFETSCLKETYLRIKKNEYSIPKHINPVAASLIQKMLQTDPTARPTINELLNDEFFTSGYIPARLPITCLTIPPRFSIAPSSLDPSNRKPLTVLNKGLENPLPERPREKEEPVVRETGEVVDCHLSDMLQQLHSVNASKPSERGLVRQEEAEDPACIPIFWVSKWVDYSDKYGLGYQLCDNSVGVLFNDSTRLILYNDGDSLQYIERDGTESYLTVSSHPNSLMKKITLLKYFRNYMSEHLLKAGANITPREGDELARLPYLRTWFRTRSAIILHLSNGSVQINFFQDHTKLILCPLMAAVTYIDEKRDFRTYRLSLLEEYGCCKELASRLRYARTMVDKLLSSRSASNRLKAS
T14 sequence (P08069 31-1367): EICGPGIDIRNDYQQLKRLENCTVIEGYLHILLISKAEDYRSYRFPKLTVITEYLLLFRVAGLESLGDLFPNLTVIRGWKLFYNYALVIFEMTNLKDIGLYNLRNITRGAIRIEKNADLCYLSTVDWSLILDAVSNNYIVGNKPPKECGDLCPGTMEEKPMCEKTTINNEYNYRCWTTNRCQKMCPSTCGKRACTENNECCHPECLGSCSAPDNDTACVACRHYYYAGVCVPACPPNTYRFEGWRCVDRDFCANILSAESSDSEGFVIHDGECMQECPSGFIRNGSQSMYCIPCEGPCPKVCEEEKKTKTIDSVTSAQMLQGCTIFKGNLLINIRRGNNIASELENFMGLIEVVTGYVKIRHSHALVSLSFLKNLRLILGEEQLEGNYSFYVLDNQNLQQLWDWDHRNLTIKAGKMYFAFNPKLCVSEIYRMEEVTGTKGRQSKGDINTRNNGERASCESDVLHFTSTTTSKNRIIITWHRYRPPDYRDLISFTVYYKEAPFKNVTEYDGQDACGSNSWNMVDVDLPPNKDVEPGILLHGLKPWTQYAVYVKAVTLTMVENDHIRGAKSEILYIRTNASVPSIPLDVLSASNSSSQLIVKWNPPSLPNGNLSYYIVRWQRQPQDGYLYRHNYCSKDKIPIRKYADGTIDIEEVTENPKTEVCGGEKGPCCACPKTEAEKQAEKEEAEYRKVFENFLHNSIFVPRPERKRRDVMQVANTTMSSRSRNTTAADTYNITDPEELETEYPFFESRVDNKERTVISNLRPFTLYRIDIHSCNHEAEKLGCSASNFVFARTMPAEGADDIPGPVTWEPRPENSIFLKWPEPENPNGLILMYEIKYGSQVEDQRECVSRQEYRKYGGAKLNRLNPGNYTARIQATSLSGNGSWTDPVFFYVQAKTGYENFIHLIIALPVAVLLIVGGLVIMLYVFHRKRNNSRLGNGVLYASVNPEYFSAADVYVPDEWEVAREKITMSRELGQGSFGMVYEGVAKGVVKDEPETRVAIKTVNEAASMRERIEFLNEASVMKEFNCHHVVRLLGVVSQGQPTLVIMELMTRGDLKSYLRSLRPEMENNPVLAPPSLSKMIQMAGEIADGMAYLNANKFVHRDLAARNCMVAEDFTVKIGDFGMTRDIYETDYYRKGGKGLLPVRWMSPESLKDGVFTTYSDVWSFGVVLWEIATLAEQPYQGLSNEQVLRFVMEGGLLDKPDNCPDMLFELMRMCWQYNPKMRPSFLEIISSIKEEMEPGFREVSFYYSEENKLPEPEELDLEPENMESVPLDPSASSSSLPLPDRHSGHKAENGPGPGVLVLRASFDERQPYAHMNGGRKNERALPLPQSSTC

With `CCN(C(=O)CO)[C@H]1CN(/C(=N\C#N)Nc2cccc(OC(F)F)c2)N=C1c1ccc(Cl)c(Cl)c1` [(S)-4] the remaining binding at 1 µM [1] was 91%, the remaining binding at 1 µM [2] was 96% and the remaining binding at 1 µM [3] was 93%. The remaining binding at 1 µM [4] was 93%, the remaining binding at 1 µM [5] was 100% and the remaining binding at 1 µM [6] was 93%. It also gave a remaining binding at 1 µM [7] of 100%, a remaining binding at 1 µM [8] of 74% and a remaining binding at 1 µM [9] of 91%. It also gave a remaining binding at 1 µM [10] of 100%, a remaining binding at 1 µM [11] of 86% and a remaining binding at 1 µM [12] of 94%. It also gave a remaining binding at 1 µM [13] of 97%, a remaining binding at 1 µM [14] of 97% and a remaining binding at 1 µM [15] of 100%. The remaining binding at 1 µM [16] was 80%, the remaining binding at 1 µM [17] was 100% and the remaining binding at 1 µM [18] was 75%. For the same molecule, the remaining binding at 1 µM [19] was 90%, the remaining binding at 1 µM [20] was 96% and the remaining binding at 1 µM [21] was 100%. For the same molecule, the remaining binding at 1 µM [22] was 100%, the remaining binding at 1 µM [23] was 91% and the remaining binding at 1 µM [24] was 100%. For the same molecule, the remaining binding at 1 µM [25] was 84%, the remaining activity at 1 µM [26] was 88% and the remaining binding at 1 µM [27] was 100%. The remaining binding at 1 µM [28] was 77%, the remaining binding at 1 µM [29] was 100% and the remaining binding at 1 µM [30] was 99%. For the same molecule, the remaining binding at 1 µM [31] was 100%, the remaining binding at 1 µM [32] was 100% and the remaining binding at 1 µM [33] was 98%. For the same molecule, the remaining binding at 1 µM [34] was 95% and the “Mode of inhibition / mode of action” value [35] was “peptide-competitive, SAM-uncompetitive inhibitor; also recorded: substrate competitive”.
